The source of these data is ChEMBL document CHEMBL6134827, “The discovery of novel antimicrobial peptides against drug-resistant bacteria based on fragments fusion strategy” (Eur J Med Chem, 2025).

Calls of active or inactive are those of the source. The calls are words filed in the database; no cut-off is given here. Positions of bridges follow the written chain, without caps; N, C: chain ends. Non-standard residues stand in square brackets, D forms with d. Residues, ends and D or L forms follow the SMILES beside them. *: point of attachment. X1 = CC[C@H](C)CCCCC(=O)*; Dab = NCC[C@H](N)C(=O)O

A short description of data set [1]: Nephrotoxicity in female C57BL/6 mouse assessed as presence of flocculents in lumen at 20 mg/kg, ip administered daily and measured for 5 days by H and E staining based analysis. The format is toxicity, organism-based. To be noted: in vivo, 120 h, time 5 day.
Data set [2] is described as follows: Toxicity in female C57BL/6 mouse assessed as histopathological change in kidney at 20 mg/kg, ip administered daily and measured for 5 days by H and E staining based analysis. To be noted: in vivo, 120 h, time 5 day. The format is organism-based.
A short description of data set [3]: Nephrotoxicity in female C57BL/6 mouse assessed as increase in BUN level at 15 mg/kg, ip administered daily and measured for 5 days. Type of data set: toxicity, organism-based. To be noted: in vivo, 120 h, time 5 day.
The nature of data set [4]: Nephrotoxicity in female C57BL/6 mouse assessed as tubular dilation at 20 mg/kg, ip administered daily and measured for 5 days by H and E staining based analysis. The format is toxicity, organism-based. To be noted: in vivo, 120 h, time 5 day.
A further data set deals with Acinetobacter baumannii. The data set is described as follows: Antimicrobial activity against multidrug resistant Acinetobacter baumannii assessed as inhibition of visible microbial growth incubated for 18 hrs by broth microdilution method. The format is functional. In general terms: In broth dilution the organism is exposed to a series of concentrations in liquid medium.

Data set [5] deals with Escherichia coli. The data set is described as follows: Antimicrobial activity against multidrug resistant Escherichia coli assessed as inhibition of visible microbial growth incubated for 18 hrs by broth microdilution method. Type of data set: functional.
In data set [6] the test system is Pseudomonas aeruginosa. The data set is described as follows: Drug resistance, ratio of MIC for multidrug resistant Pseudomonas aeruginosa after 14 passages to MIC for multidrug resistant Pseudomonas aeruginosa after first exposure. The format is functional.
Data set [7] concerns Pseudomonas aeruginosa. The data set is described as follows: Antimicrobial activity against multidrug resistant Pseudomonas aeruginosa assessed as inhibition of visible microbial growth incubated for 18 hrs by broth microdilution method. Type of data set: functional.
The test system of data set [8] is Escherichia coli. The data set is described as follows: Antimicrobial activity against Escherichia coli ATCC 25922 assessed as inhibition of visible microbial growth incubated for 18 hrs by broth microdilution method. Type of data set: functional.
Data set [9] has as its system Pseudomonas aeruginosa. The data set is described as follows: Drug resistance, ratio of MIC for multidrug resistant Pseudomonas aeruginosa after 5 passages to MIC for multidrug resistant Pseudomonas aeruginosa after first exposure. The format is functional.
The subject of data set [10] is Staphylococcus aureus. The data set is described as follows: Drug resistance, ratio of MIC for multidrug resistant Staphylococcus aureus after 4 passages to MIC for multidrug resistant Staphylococcus aureus after first exposure. Type of data set: functional.
Data set [11] concerns Staphylococcus aureus. The data set is described as follows: Drug resistance, ratio of MIC for Staphylococcus aureus ATCC 29213 after 14 passages to MIC for Staphylococcus aureus ATCC 29213 after first exposure. Type of data set: functional.
In data set [12] the test system is Staphylococcus aureus. The data set is described as follows: Antimicrobial activity against multidrug resistant Staphylococcus aureus assessed as inhibition of visible microbial growth incubated for 18 hrs by broth microdilution method. The format is functional.
Data set [13] concerns Staphylococcus aureus. The data set is described as follows: Antimicrobial activity against Staphylococcus aureus ATCC 29213 assessed as inhibition of visible microbial growth incubated for 18 hrs by broth microdilution method. The format is functional.
The subject of data set [14] is Staphylococcus aureus. The data set is described as follows: Drug resistance, ratio of MIC for Staphylococcus aureus ATCC 29213 after 4 passages to MIC for Staphylococcus aureus ATCC 29213 after first exposure. The format is functional.
Data set [15] concerns Staphylococcus aureus. The data set is described as follows: Drug resistance, ratio of MIC for multidrug resistant Staphylococcus aureus after 10 passages to MIC for multidrug resistant Staphylococcus aureus after first exposure. The format is functional.
Data set [16] in a line: Stability in 25% human plasma assessed as compound remaining measured after 24 hrs by RP-HPLC analysis. Type of data set: ADME, cell-free. To be noted: 25% plasma, read-out: Stability.
In data set [17] the test system is Pseudomonas aeruginosa. The data set is described as follows: Antibacterial activity against multidrug resistant Pseudomonas aeruginosa assessed as reduction in bacterial growth at 32 microg/mL measured within 30 min by bactericidal kinetic assay relative to control. The format is functional. Also noted: scale not given: the % may be the effect or the level left. To be noted: dose 32 µg/ml, 0.5 h.

Data set [18] deals with Cell membrane. The data set is described as follows: Induction of outer cell membrane permeabilization in multidrug resistant Pseudomonas aeruginosa assessed as increase in fluorescence intensity measured for 12 mins by NPN uptake assay. Type of data set: subcellular. To be noted: dose 4-32 µg/ml.
The subject of data set [19] is Staphylococcus aureus. The data set is described as follows: Antibacterial activity against multidrug resistant Staphylococcus aureus assessed as reduction in bacterial growth at 32 microg/mL measured after 1.5 hrs by bactericidal kinetic assay. Type of data set: functional, organism-based. To be noted: dose 32.0 µg/ml.
A further data set has as its system BEAS-2B. The data set is described as follows: Cytotoxicity against human BEAS-2B cells assessed as reduction in cell viability at 2 to 64 microg/mL measured after 24 hrs by CCK-8 assay. The format is toxicity, cell-based. To be noted: dose 2-64 µg/ml. Background: Formazan colour is commonly taken as a measure of viable cells.
Data set [20] can be described thus: Hemolytic activity in human red blood cell assessed as hemolysis at 128 microg/ml measured after 1 hrs by microplate reader assay relative to control. The format is toxicity, cell-based, Erythrocyte. To be noted: red blood cells, at 128 µg/mL, read-out: Activity.
A further data set has as its system L02. The data set is described as follows: Cytotoxicity against human LO2 cells assessed as reduction in cell viability at 2 to 64 microg/mL measured after 24 hrs by CCK-8 assay. Type of data set: toxicity, cell-based. As to conditions: l02, 24 h, dose 2-64 µg/ml.
Data set [21] in a line: Cytotoxicity against human BEAS-2B cells assessed as inhibition of cell growth measured after 24 hrs by CCK-8 assay. The format is toxicity, cell-based.
Data set [22] relates to Cell membrane. The data set is described as follows: Induction of outer cell membrane permeabilization in multidrug resistant Pseudomonas aeruginosa assessed as increase in fluorescence intensity at >16 microg/ml measured for 12 mins by NPN uptake assay. Type of data set: subcellular. To be noted: dose > 16.0 µg/ml.
The test system of data set [23] is Cell membrane. The data set is described as follows: Induction of cytoplasmic membrane depolarization in multidrug resistant Pseudomonas aeruginosa assessed as increase in fluorescence intensity measured for 12 min by DISC3-5 dye based fluorescence analysis. To be noted: dose 4-32 µg/ml. Type of data set: subcellular.
The test system of a further data set is Bacillus subtilis. The data set is described as follows: Antibacterial activity against Bacillus subtilis. The format is functional.

For `CC(C)CCCCC(=O)N[C@@H](CCN)C(=O)N[C@H](C(=O)N[C@@H](CCN)C(=O)N[C@H]1CCNC(=O)[C@H]([C@@H](C)O)NC(=O)[C@H](CCN)NC(=O)[C@H](CCN)NC(=O)[C@H](CC(C)C)NC(=O)[C@@H](Cc2ccccc2)NC(=O)[C@H](CCN)NC1=O)[C@@H](C)O.CC[C@H](C)CCCCC(=O)N[C@@H](CCN)C(=O)N[C@H](C(=O)N[C@@H](CCN)C(=O)N[C@H]1CCNC(=O)[C@H]([C@@H](C)O)NC(=O)[C@H](CCN)NC(=O)[C@H](CCN)NC(=O)[C@H](CC(C)C)NC(=O)[C@@H](Cc2ccccc2)NC(=O)[C@H](CCN)NC1=O)[C@@H](C)O` (X1-[Dab]T[Dab][Dab][Dab][dF]L[Dab][Dab]T; lactam 4-C) [listing 1 of 2 here], the Activity result is “Toxic” in data set [1], “Non-toxic” in data set [2], “Toxic” in [3] and “Toxic” in data set [4].

The MIC is the lowest concentration found to suppress growth. As to `CC(C)CCCCC(=O)N[C@@H](CCN)C(=O)N[C@H](C(=O)N[C@@H](CCN)C(=O)N[C@H]1CCNC(=O)[C@H]([C@@H](C)O)NC(=O)[C@H](CCN)NC(=O)[C@H](CCN)NC(=O)[C@H](CC(C)C)NC(=O)[C@@H](Cc2ccccc2)NC(=O)[C@H](CCN)NC1=O)[C@@H](C)O.CC[C@H](C)CCCCC(=O)N[C@@H](CCN)C(=O)N[C@H](C(=O)N[C@@H](CCN)C(=O)N[C@H]1CCNC(=O)[C@H]([C@@H](C)O)NC(=O)[C@H](CCN)NC(=O)[C@H](CCN)NC(=O)[C@H](CC(C)C)NC(=O)[C@@H](Cc2ccccc2)NC(=O)[C@H](CCN)NC1=O)[C@@H](C)O` (X1-[Dab]T[Dab][Dab][Dab][dF]L[Dab][Dab]T; lactam 4-C) [listing 2 of 2 here], the MIC was found to be 0.8 µM with Acinetobacter baumannii, 0.8 µM in the data set with Escherichia coli [5], 2 µg/mL in the data set with Pseudomonas aeruginosa [7] and 0.4 µM with Escherichia coli [8]. Besides, the Ratio with Pseudomonas aeruginosa [6] is 4.

On to `C[C@H]1COc2c(N3CCN(C)CC3)c(F)cc3c(=O)c(C(=O)O)cn1c23` [LEVOFLOXACIN ANHYDROUS], for which the Ratio turned out to be 16 with Pseudomonas aeruginosa [9], 4 with Staphylococcus aureus [10] and 512 with Staphylococcus aureus [11].

Consider `CN[C@H](CC(C)C)C(=O)N[C@H]1C(=O)N[C@@H](CC(N)=O)C(=O)N[C@H]2C(=O)N[C@H]3C(=O)N[C@H](C(=O)N[C@H](C(=O)O)c4cc(O)cc(O)c4-c4cc3ccc4O)[C@H](O)c3ccc(c(Cl)c3)Oc3cc2cc(c3O[C@@H]2O[C@H](CO)[C@@H](O)[C@H](O)[C@H]2O[C@H]2C[C@](C)(N)[C@H](O)[C@H](C)O2)Oc2ccc(cc2Cl)[C@H]1O` [VANCOMYCIN], for which the MIC in the data set on Staphylococcus aureus [12] and with Staphylococcus aureus [13] was 0.7 µM each time. For the same molecule, the Ratio with Staphylococcus aureus [14] came to 4; with Staphylococcus aureus [15] it was 2.

For orientation: CC50 means the concentration that lowers cell viability or growth by half. Take H-GIGKFLKKAKKFGKAFVKILKK-OH: the MIC in the data set with Staphylococcus aureus [12] stood at 12.9 µM; in the data set with Acinetobacter baumannii, 1.6 µM; with Escherichia coli [5] it was 3.2 µM; with Staphylococcus aureus [13], 12.9 µM; with Pseudomonas aeruginosa [7], 3.2 µM; with Escherichia coli [8] it was 3.2 µM. Further, the remaining at 24 h in data set [16] came to 34%. Also, the Activity with Pseudomonas aeruginosa [17] was 100%; in the data set on Cell membrane [18], “Dose-dependent-effect”; in the data set on Staphylococcus aureus [19], “Not active; Bacterial Regrowth Observed”; in the data set on BEAS-2B it was “Toxic”; in the data set on L02, “Toxic”; with Cell membrane [23] it was “Dose-dependent-effect”. Besides, the Ratio was found to be 4 with Pseudomonas aeruginosa [6], 8 in the data set on Staphylococcus aureus [10] and 8 in the data set with Staphylococcus aureus [14]. Moreover, the hemolysis at 1 h, 128 µg/mL in [20] was under 10%. Also, the CC50 at 24 h in data set [21] worked out at 45.9 µg/mL. In the data set with Cell membrane [22], the outcome was Active.

On to H-GLRKRLRKFFNKIKF-OH, for which the MIC in the data set with Staphylococcus aureus [12] was 65.7 µM; in the data set on Acinetobacter baumannii, 16.4 µM; in the data set on Escherichia coli [5], 4.1 µM; in the data set with Staphylococcus aureus [13] it was 32.8 µM; in the data set with Bacillus subtilis it was over 3 µM; in the data set with Pseudomonas aeruginosa [7] it was 16.4 µM. Also, the MIC with Escherichia coli [8] is 8.2 µM.

With H-GLRKWLRKFKKFW-OH, the MIC in the data set with Staphylococcus aureus [12] amounted to 17.8 µM; in the data set on Acinetobacter baumannii, 4.5 µM; in the data set with Escherichia coli [5], 4.5 µM; with Staphylococcus aureus [13] it was 17.8 µM; with Pseudomonas aeruginosa [7], 4.5 µM; with Escherichia coli [8] it was 8.9 µM. Further, the Activity result with BEAS-2B and in the data set on L02 was “Toxic” in each case. For the same molecule, the hemolysis at 1 h, 128 µg/mL in data set [20] is under 10%. Moreover, in [21], the CC50 at 24 h came to 38.4 µg/mL.
